# Measurements as given in ChEMBL document CHEMBL6096732 (J Med Chem, 2025).
# Activity calls are given as the source filed them. The calls are words filed in the database; no cut-off is given here.
# Biological target: Histone deacetylase 3 (Homo sapiens, UniProt O15379)
# Assay: not given
# Settings: dose 500.0 nM, time 3.0 hrs
# Chain of Histone deacetylase 3 (O15379 whole entry): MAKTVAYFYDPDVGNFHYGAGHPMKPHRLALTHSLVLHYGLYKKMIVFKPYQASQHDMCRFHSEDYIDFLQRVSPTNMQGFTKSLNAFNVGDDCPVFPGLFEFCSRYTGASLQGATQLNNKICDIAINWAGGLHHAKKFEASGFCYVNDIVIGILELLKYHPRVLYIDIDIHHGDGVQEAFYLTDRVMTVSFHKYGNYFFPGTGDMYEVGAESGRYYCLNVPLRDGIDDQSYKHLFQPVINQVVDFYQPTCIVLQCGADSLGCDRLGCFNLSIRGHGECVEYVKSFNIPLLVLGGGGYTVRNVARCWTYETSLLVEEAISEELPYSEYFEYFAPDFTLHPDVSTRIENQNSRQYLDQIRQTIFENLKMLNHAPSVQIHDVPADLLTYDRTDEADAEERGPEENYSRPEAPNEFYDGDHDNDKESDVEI
row,inhibition [%],SMILES
1,< 10,CC(C)CCNNC(=O)c1ccc(Cn2c3ccccc3c3c(-c4ccccn4)nc4ccccc4c32)cc1
2,32,CCNNC(=O)c1ccc(Cn2c3ccccc3c3c(-c4ccccn4)nc4ccccc4c32)cc1
3,< 10,CCCCCCCCCCNNC(=O)c1ccc(Cn2c3ccccc3c3c(-c4ccccn4)nc4ccccc4c32)cc1
4,91,C/C=C/CNNC(=O)c1ccc(Cn2c3ccccc3c3c(-c4ccccn4)nc4ccccc4c32)cc1
5,57,CCCNNC(=O)c1ccc(Cn2c3ccccc3c3c(-c4ccccc4)nc4ccccc4c32)cc1
6,82,CCCCCNNC(=O)c1ccc(Cn2c3ccccc3c3c(-c4ccccn4)nc4ccccc4c32)cc1
7,40,CCCCCCCCNNC(=O)c1ccc(Cn2c3ccccc3c3c(-c4ccccn4)nc4ccccc4c32)cc1

# Further lines, the compound ahead of its results:
row,SMILES,inhibition [%]
1,CCCN(CCC)NC(=O)c1ccc(Cn2c3ccccc3c3c(C4CCN(C(=O)OC(C)(C)C)CC4)nc4ccccc4c32)cc1,< 10
2,O=C(CCCCCCC(=O)Nc1ccccc1)NO [VORINOSTAT],77
3,CCCNNC(=O)c1ccc(Cn2c3ccccc3c3c(-c4cccnc4)nc4ccccc4c32)cc1,84
4,CCCNNC(=O)c1ccc(Cn2c3ccccc3c3c(-c4ccc(C#N)cc4)nc4ccccc4c32)cc1,33
5,CCCNNC(=O)c1ccc(Cn2c3ccccc3c3c(-c4cc(Cl)ccc4O)nc4ccccc4c32)cc1,47
6,CCCNNC(=O)c1ccc(Cn2c3ccccc3c3c(-c4ccncc4)nc4ccccc4c32)cc1,65

# System: Mus musculus
# Assay: Effect on acetylated alpha-tubulin level in male C57BL/6 mouse tumor implanted with mouse B16-F10 cells at 50 mg/kg, po administered once daily via gavage for 14 days by Western blot analysis
# Assay type: functional, organism-based
# Settings: time 14.0 day
row,SMILES,Activity
1,O=C(CCCCCCC(=O)Nc1ccccc1)NO [VORINOSTAT],inactive

# System: B16-F10
# Assay: cells
# Assay type: functional, cell-based
# Settings: Mus musculus, B16-F10, 72 h
# Description: Antiproliferative activity against mouse B16-F10 cells assessed as inhibition of cell growth incubated for 72 hrs by MTT assay
row,IC50 [µM],SMILES
1,13.9,Nc1ccccc1NC(=O)c1ccc(CNC(=O)OCc2cccnc2)cc1 [ENTINOSTAT]

# System: SK-OV-3
# Assay: cells
# Assay type: functional, cell-based
# Settings: Homo sapiens, SK-OV-3, 72 h
# Description: Antiproliferative activity against human SK-OV-3 cells assessed as inhibition of cell growth incubated for 72 hrs by MTT assay
row,IC50 [µM],SMILES
1,> 10,Nc1ccccc1NC(=O)c1ccc(CNC(=O)OCc2cccnc2)cc1 [ENTINOSTAT]

# System: not listed separately
# Assay: Retention time of compound by HPLC analysis
# Assay type: physicochemical
# Settings: not given
row,Retention_time [min],SMILES
1,14.7,CC(/C=C/C(=O)NO)=C\[C@@H](C)C(=O)c1ccc(N(C)C)cc1 [TRICHOSTATIN]

# Biological target: T1, Histone deacetylase 3 (Mus musculus) (UniProt O88895)
# T1 sequence (whole entry): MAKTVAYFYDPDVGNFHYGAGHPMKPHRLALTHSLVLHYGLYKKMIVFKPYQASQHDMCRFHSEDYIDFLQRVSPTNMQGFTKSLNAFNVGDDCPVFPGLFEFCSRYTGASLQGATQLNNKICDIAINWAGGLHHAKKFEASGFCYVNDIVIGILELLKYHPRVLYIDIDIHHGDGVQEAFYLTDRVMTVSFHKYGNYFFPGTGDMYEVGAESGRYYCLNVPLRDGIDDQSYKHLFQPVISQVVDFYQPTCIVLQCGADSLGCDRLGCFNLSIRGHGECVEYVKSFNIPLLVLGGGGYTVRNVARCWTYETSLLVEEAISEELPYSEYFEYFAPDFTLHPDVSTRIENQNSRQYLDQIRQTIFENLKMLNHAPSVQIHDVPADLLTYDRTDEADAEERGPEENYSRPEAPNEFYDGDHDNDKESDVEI
# Assay: Inhibition of HDAC3 in mouse 4T1 cells assessed as increase in histone H3 acetylation level at 5 to 20 uM incubated for 24 hrs by Western blot analysis
# Assay type: cell-based
# Settings: dose 5-20 µM
row,inhibition,SMILES
1,Active,O=C(CCCCCCC(=O)Nc1ccccc1)NO [VORINOSTAT]

# System: 4T1
# Assay: cells
# Assay type: functional, cell-based
# Settings: Mus musculus, 4T1, 72 h
row,IC50 [µM],SMILES
1,6.85,Nc1ccccc1NC(=O)c1ccc(CNC(=O)OCc2cccnc2)cc1 [ENTINOSTAT]

# Biological target: Histone deacetylase 11 (Homo sapiens, UniProt Q96DB2)
# Assay: Inhibition of recombinant HDAC11 (unknown origin) preincubated for 1 hr followed by substrate addition and measured after 2 hrs by fluorescence based micro plate reader analysis
# Settings: not given
# Chain of Histone deacetylase 11 (Q96DB2 whole entry): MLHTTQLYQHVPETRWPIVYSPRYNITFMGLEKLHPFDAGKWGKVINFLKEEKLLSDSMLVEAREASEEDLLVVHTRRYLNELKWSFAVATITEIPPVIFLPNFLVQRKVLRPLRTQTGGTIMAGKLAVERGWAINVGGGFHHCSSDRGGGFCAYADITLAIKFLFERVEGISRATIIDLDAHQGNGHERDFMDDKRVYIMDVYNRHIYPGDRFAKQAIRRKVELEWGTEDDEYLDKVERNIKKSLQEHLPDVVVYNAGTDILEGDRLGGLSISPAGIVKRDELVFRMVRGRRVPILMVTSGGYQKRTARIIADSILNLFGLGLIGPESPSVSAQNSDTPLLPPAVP
row,IC50 [µM],SMILES
1,> 10,Nc1ccccc1NC(=O)c1ccc(CNC(=O)OCc2cccnc2)cc1 [ENTINOSTAT]

# System: Mus musculus
# Assay: Immunomodulatory activity in male C57BL/6 mouse model implanted with mouse B16-F10 cells assessed as increase in CD3+ CD8+ T cells in tumor at 50 mg/kg, po administered once daily for 14 days by flow cytometric analysis (reference value: 3.2 %)
# Assay type: functional
# Settings: time 14 day
row,SMILES,Activity [%]
1,O=C(CCCCCCC(=O)Nc1ccccc1)NO [VORINOSTAT],23

# Biological target: Histone deacetylase 1 (Homo sapiens, UniProt Q13547)
# Assay: not given
# Settings: dose 500.0 nM, time 3.0 hrs
# Chain of Histone deacetylase 1 (Q13547 whole entry): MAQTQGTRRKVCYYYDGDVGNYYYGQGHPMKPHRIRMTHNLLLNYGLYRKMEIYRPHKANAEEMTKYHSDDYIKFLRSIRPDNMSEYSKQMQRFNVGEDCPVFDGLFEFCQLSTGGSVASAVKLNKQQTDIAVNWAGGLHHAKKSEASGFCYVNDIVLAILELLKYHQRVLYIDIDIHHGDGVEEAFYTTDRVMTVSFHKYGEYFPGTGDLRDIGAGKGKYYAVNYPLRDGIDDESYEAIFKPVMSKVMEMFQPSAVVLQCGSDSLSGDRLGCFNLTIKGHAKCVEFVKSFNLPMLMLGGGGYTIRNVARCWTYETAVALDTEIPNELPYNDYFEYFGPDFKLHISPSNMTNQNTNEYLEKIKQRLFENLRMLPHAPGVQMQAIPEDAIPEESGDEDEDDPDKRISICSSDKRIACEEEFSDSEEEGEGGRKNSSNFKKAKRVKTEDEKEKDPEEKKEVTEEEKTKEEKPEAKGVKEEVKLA
row,inhibition [%],SMILES
1,< 10,CC(C)CCNNC(=O)c1ccc(Cn2c3ccccc3c3c(-c4ccccn4)nc4ccccc4c32)cc1
2,11,CCNNC(=O)c1ccc(Cn2c3ccccc3c3c(-c4ccccn4)nc4ccccc4c32)cc1
3,< 10,CCCCCCCCCCNNC(=O)c1ccc(Cn2c3ccccc3c3c(-c4ccccn4)nc4ccccc4c32)cc1
4,39,C/C=C/CNNC(=O)c1ccc(Cn2c3ccccc3c3c(-c4ccccn4)nc4ccccc4c32)cc1
5,< 10,CCCNNC(=O)c1ccc(Cn2c3ccccc3c3c(-c4ccccc4)nc4ccccc4c32)cc1
6,20,CCCCCNNC(=O)c1ccc(Cn2c3ccccc3c3c(-c4ccccn4)nc4ccccc4c32)cc1
7,< 10,CCCCCCCCNNC(=O)c1ccc(Cn2c3ccccc3c3c(-c4ccccn4)nc4ccccc4c32)cc1

# Second part, the compound before the results:
row,SMILES,inhibition [%]
1,Nc1ccccc1NC(=O)c1ccc(CNC(=O)OCc2cccnc2)cc1 [ENTINOSTAT],88
2,CCCN(CCC)NC(=O)c1ccc(Cn2c3ccccc3c3c(C4CCN(C(=O)OC(C)(C)C)CC4)nc4ccccc4c32)cc1,< 10
3,CCCNNC(=O)c1ccc(Cn2c3ccccc3c3c(-c4cccnc4)nc4ccccc4c32)cc1,16
4,CCCNNC(=O)c1ccc(Cn2c3ccccc3c3c(-c4ccc(C#N)cc4)nc4ccccc4c32)cc1,< 10
5,CCCNNC(=O)c1ccc(Cn2c3ccccc3c3c(-c4cc(Cl)ccc4O)nc4ccccc4c32)cc1,31
6,CCCNNC(=O)c1ccc(Cn2c3ccccc3c3c(-c4ccncc4)nc4ccccc4c32)cc1,12

# Biological target: T1, Histone deacetylase 3 (Mus musculus)
# Assay: Inhibition of HDAC3 in mouse B16-F10 cells assessed as increase in histone H3 acetylation level at 5 to 20 uM incubated for 24 hrs by Western blot analysis
# Assay type: cell-based
# Settings: dose 5-20 µM
row,inhibition,SMILES
1,Active,O=C(CCCCCCC(=O)Nc1ccccc1)NO [VORINOSTAT]

# Biological target: T1, Histone deacetylase 3 (Mus musculus)
# Assay: In vivo inhibition of HDAC3 in male C57BL/6 mouse model implanted with mouse B16-F10 cells assessed as increase in acetylated histone H3 level at 50 mg/kg, po administered once daily via gavage for 14 days by Western blot analysis
# Assay type: functional, organism-based
# Settings: time 14.0 day
row,inhibition,SMILES
1,Active,O=C(CCCCCCC(=O)Nc1ccccc1)NO [VORINOSTAT]

# Biological target: T1, Histone deacetylase 3 (Mus musculus)
# Assay: In vivo inhibition of HDAC3 in male C57BL/6 mouse model implanted with mouse B16-F10 cells assessed as increase in acetylated histone H3 level in tumor at 50 mg/kg, po administered once daily via gavage for 14 days by DAPI staining based immunofluorescence analysis
# Assay type: functional, organism-based
# Settings: time 14.0 day
row,inhibition,SMILES
1,Active,O=C(CCCCCCC(=O)Nc1ccccc1)NO [VORINOSTAT]

# Biological target: T2, Protein deacetylase HDAC6 (Homo sapiens) (UniProt Q9UBN7)
# T2 sequence (whole entry): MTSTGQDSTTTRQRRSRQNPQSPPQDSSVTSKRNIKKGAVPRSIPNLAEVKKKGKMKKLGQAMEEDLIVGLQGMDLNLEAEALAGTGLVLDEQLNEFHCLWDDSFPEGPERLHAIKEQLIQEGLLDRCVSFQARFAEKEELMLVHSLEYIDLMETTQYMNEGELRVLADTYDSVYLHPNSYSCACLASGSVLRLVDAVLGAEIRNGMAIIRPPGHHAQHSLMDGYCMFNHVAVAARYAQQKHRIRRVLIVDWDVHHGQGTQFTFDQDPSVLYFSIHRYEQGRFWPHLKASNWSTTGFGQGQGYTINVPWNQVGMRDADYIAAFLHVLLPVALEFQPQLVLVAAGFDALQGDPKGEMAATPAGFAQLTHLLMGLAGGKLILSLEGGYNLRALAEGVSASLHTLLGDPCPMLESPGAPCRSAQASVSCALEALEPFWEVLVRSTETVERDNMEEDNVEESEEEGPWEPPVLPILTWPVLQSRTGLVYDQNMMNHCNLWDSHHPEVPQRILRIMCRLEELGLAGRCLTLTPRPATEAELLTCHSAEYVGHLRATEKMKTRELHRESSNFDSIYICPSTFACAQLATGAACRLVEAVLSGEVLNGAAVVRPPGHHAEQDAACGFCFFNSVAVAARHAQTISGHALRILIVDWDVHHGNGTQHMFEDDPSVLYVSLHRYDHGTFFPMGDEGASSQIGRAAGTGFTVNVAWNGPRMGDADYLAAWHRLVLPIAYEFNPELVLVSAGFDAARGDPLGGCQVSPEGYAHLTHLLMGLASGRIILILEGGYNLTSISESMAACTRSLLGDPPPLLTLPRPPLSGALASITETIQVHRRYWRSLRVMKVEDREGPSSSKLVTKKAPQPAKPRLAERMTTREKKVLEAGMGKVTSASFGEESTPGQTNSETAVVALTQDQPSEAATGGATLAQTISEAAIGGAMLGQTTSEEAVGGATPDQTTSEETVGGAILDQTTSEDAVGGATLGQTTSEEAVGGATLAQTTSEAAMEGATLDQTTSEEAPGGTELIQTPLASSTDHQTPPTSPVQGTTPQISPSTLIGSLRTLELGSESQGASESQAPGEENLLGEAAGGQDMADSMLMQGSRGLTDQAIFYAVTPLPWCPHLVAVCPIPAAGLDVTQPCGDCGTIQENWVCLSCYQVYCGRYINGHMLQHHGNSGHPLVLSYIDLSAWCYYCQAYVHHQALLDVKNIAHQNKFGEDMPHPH
# Assay: not given
# Settings: dose 500.0 nM, time 3.0 hrs
row,inhibition [%],SMILES
1,< 10,CC(C)CCNNC(=O)c1ccc(Cn2c3ccccc3c3c(-c4ccccn4)nc4ccccc4c32)cc1
2,< 10,CCNNC(=O)c1ccc(Cn2c3ccccc3c3c(-c4ccccn4)nc4ccccc4c32)cc1
3,< 10,CCCCCCCCCCNNC(=O)c1ccc(Cn2c3ccccc3c3c(-c4ccccn4)nc4ccccc4c32)cc1
4,< 10,C/C=C/CNNC(=O)c1ccc(Cn2c3ccccc3c3c(-c4ccccn4)nc4ccccc4c32)cc1
5,24,CCCNNC(=O)c1ccc(Cn2c3ccccc3c3c(-c4ccccc4)nc4ccccc4c32)cc1
6,< 10,CCCCCNNC(=O)c1ccc(Cn2c3ccccc3c3c(-c4ccccn4)nc4ccccc4c32)cc1
7,26,CCCCCCCCNNC(=O)c1ccc(Cn2c3ccccc3c3c(-c4ccccn4)nc4ccccc4c32)cc1

# More lines, now with the values behind:
row,SMILES,inhibition [%]
1,Nc1ccccc1NC(=O)c1ccc(CNC(=O)OCc2cccnc2)cc1 [ENTINOSTAT],24
2,CCCN(CCC)NC(=O)c1ccc(Cn2c3ccccc3c3c(C4CCN(C(=O)OC(C)(C)C)CC4)nc4ccccc4c32)cc1,< 10
3,CCCNNC(=O)c1ccc(Cn2c3ccccc3c3c(-c4cccnc4)nc4ccccc4c32)cc1,21
4,CCCNNC(=O)c1ccc(Cn2c3ccccc3c3c(-c4ccc(C#N)cc4)nc4ccccc4c32)cc1,< 10
5,CCCNNC(=O)c1ccc(Cn2c3ccccc3c3c(-c4cc(Cl)ccc4O)nc4ccccc4c32)cc1,30
6,CCCNNC(=O)c1ccc(Cn2c3ccccc3c3c(-c4ccncc4)nc4ccccc4c32)cc1,19

# System: Mus musculus
# Assay: Immunomodulatory activity in male C57BL/6 mouse model implanted with mouse B16-F10 cells assessed as increase in CD3+ CD4+ T cells in tumor at 50 mg/kg, po administered once daily for 14 days by flow cytometric analysis (reference value: 3.1 %)
# Assay type: functional
# Settings: time 14 day
row,SMILES,Activity [%]
1,O=C(CCCCCCC(=O)Nc1ccccc1)NO [VORINOSTAT],17

# System: HCT-116
# Assay: cells
# Assay type: functional, cell-based
# Settings: Homo sapiens, HCT-116, 72 h
# Description: Antiproliferative activity against human HCT-116 cells assessed as inhibition of cell growth incubated for 72 hrs by MTT assay
row,IC50 [µM],SMILES
1,1.67,Nc1ccccc1NC(=O)c1ccc(CNC(=O)OCc2cccnc2)cc1 [ENTINOSTAT]
